According to the supplement of paper PMC10307832:

Key:
Experiment in all cases: relative viability (nuclei count vs DMSO), 5 days (fraction); higher = more cells survive
Tivozanib = compound: COc1cc2nccc(Oc3ccc(NC(=O)Nc4cc(C)on4)c(Cl)c3)c2cc1OC [Tivozanib]
Outline: (§1)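 MetaXpress counted nuclei in 4× images of lung cancer cell lines that had been fixed, permeabilised and Hoechst-stained in one step. Before that, cells in 1536-well plates were kept overnight at 37 °C, pinned with five √10-spaced library-drug doses on vehicle-anchored plates, and cultured 5 days without medium change. Viability takes treated-well nuclei over vehicle-well nuclei and uses the median across plates. Plates were accepted only at control CV below 25% and at least one doubling.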

JQ1 = compound: Cc1sc2c(c1C)C(c1ccc(Cl)cc1)=N[C@@H](CC(=O)OC(C)(C)C)c1nnc(C)n1-2 [JQ1]
Outline: as §1

Pimozide = compound: O=c1[nH]c2ccccc2n1C1CCN(CCCC(c2ccc(F)cc2)c2ccc(F)cc2)CC1 [Pimozide]
Outline: as §1

CPI-613 = compound: O=C(O)CCCCC(CCSCc1ccccc1)SCc1ccccc1 [CPI-613]
Outline: as §1

[1] = compound: Cc1cnc(-c2cnc(NCCNc3ccc(C#N)cn3)nc2-c2ccc(Cl)cc2Cl)[nH]1
Outline: as §1

Docetaxel = compound: CC(=O)O[C@@]12CO[C@@H]1C[C@H](O)[C@@]1(C)C(=O)[C@H](O)C3=C(C)[C@@H](OC(=O)[C@H](O)[C@@H](NC(=O)OC(C)(C)C)c4ccccc4)C[C@@](O)([C@@H](OC(=O)c4ccccc4)[C@H]21)C3(C)C [Docetaxel]
Outline: as §1

Cytarabine = compound: Nc1ccn([C@@H]2O[C@H](CO)[C@@H](O)[C@@H]2O)c(=O)n1 [Cytarabine]
Outline: as §1

Cell Line	relative viability (Tivozanib; 0.005 µM)	relative viability (Tivozanib; 0.01581 µM)	relative viability (Tivozanib; 0.05 µM)	relative viability (Tivozanib; 0.1581 µM)	relative viability (Tivozanib; 0.5 µM)	relative viability (JQ1; 0.04 µM)	relative viability (JQ1; 0.1265 µM)	relative viability (JQ1; 0.4 µM)	relative viability (JQ1; 1.265 µM)	relative viability (JQ1; 4 µM)	relative viability (Pimozide; 0.08 µM)	relative viability (Pimozide; 0.253 µM)	relative viability (Pimozide; 0.8 µM)	relative viability (Pimozide; 2.53 µM)	relative viability (Pimozide; 8 µM)	relative viability (CPI-613; 5 µM)	relative viability (CPI-613; 15.81 µM)	relative viability (CPI-613; 50 µM)	relative viability (CPI-613; 158.11 µM)	relative viability (CPI-613; 500 µM)	relative viability ([1]; 0.08 µM)	relative viability ([1]; 0.253 µM)	relative viability ([1]; 0.8 µM)	relative viability ([1]; 2.53 µM)	relative viability (Docetaxel; 0.0002 µM)	relative viability (Docetaxel; 0.000632 µM)	relative viability (Docetaxel; 0.002 µM)	relative viability (Docetaxel; 0.006325 µM)	relative viability (Docetaxel; 0.02 µM)	relative viability (Cytarabine; 0.005 µM)	relative viability (Cytarabine; 0.01581 µM)	relative viability (Cytarabine; 0.05 µM)	relative viability (Cytarabine; 0.1581 µM)	relative viability (Cytarabine; 0.5 µM)
HCC-44	0.936	0.949	0.976	1.02	0.87	0.977	0.776	0.778	0.438	0.308	0.986	0.95	0.876	0.911	0.952	1.01	0.958	1.03	0.869	0.51	0.986	0.867	1.07	1.08	0.956	0.949	0.587	0.296	0.198	0.989	0.882	0.643	0.614	0.356
HCC-78	0.85	0.942	0.955	0.732	0.757	0.936	0.853	0.843	0.601	0.434	0.859		0.828	0.837	0.932	0.875	0.835	0.994	0.921	0.839	0.999	0.807	0.936	0.928	0.91	0.784	0.48	0.482	0.382	1.09	0.844	0.593	0.444	0.339
HCC-366	0.982	0.98	1.02	1.02	0.992	1.05		1.08	0.693	0.325	0.978	1.01	0.967	0.992	0.972	1.02	1.04	1.09	0.413	0.0138	1.04	0.928	0.968	0.925	0.946	0.631	0.14	0.0335	0.03	1.01	0.974	0.884	0.337	0.11
HCC-827	1.01	1.05	1.1	1.09	1	1.05		0.988	1.11	0.883		1.04	0.955	1.02	1.01	0.993	1.02	1.11	0.908	0.669	1.05		1.02	1.02	0.943	1.07	0.916	0.431	0.328	0.765	0.568	0.417	0.225	0.196
HOP-62	1.01	1.03	1.09	0.936	0.978	0.999	0.808	0.662	0.29	0.153	1.04	0.947	0.646	0.994	0.981	0.978	0.936	1	0.833	0.643	0.989	0.826	1.02	0.942	0.969	0.759	0.543	0.289	0.184	0.848	0.636	0.431	0.159	0.104
IA-LM	0.865	1.01	0.909	0.767	0.845	0.907	0.419	0.165	0.11	0.085	0.951	1.02	0.929	1.02	0.966	0.818	0.779	0.85	0.525	0.671	1.02	0.8	1.02	0.916	0.704	0.231	0.131	0.0652	0.0513	0.962	0.814	0.662	0.38	0.226
LC-2-ad	0.975	0.995	0.928	0.815	0.569	0.996	0.462	0.545	0.31	0.286	0.942	0.894	0.82	0.974	0.897	0.876	0.924	0.968	0.392	0.029	1.03		0.824	0.982	0.653	0.46	0.328	0.282	0.202	0.832	0.856	0.778	0.487	0.296
LCLC-97TM1	0.953	1.04	1.05	0.927	0.919	1	0.759	0.803	0.491	0.194	0.984	0.906	0.916	0.953	0.653	0.964	0.993	0.985	0.97	0.629	0.977	0.846	0.907	0.908	0.88	0.617	0.3	0.104	0.0757	0.99	0.787	0.296	0.143	0.129
